Read-outs that look alike come from different tables or passages of the source.
T1: Gal-4C (Homo sapiens, UniProt P56470)
T1 construct: Gal-4C
T1 sequence (P56470 194-323 limits assumed): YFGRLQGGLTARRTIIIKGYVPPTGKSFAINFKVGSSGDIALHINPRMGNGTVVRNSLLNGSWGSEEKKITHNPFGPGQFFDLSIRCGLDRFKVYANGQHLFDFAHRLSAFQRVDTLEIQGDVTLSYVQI

T2: Gal-4N (Homo sapiens, UniProt P56470)
T2 construct: Gal-4N
T2 sequence (P56470 19-150 limits assumed): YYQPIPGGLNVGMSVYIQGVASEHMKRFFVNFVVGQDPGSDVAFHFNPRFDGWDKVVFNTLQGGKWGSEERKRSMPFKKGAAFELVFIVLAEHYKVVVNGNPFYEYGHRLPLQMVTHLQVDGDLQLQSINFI

T3: galectin-2 (Homo sapiens, UniProt P05162)
T3 sequence (P05162 1-132): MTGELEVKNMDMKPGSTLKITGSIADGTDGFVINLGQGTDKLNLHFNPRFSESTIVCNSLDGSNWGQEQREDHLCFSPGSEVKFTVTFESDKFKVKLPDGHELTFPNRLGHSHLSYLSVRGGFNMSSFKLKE

T4: galectin-8N (Homo sapiens, UniProt O00214)
T4 construct: the N-terminal CRD of galectin-8 (galectin-8N)
T4 sequence (O00214 19-152 limits assumed): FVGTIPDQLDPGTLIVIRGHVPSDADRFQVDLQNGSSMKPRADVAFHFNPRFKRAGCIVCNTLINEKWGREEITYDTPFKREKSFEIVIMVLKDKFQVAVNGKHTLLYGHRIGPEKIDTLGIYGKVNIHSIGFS


What was measured:
[1] = molecular target: T5, galectin-9N (Homo sapiens, UniProt O00182); assay: Fluorescence anisotropy assay, galectin-9N; assay type: binding; conditions: about 1 μM galectin, 0.1 or 0.02 μM probe; NI = no inhibition at highest concentration tested; read-out: Calculated Kd, Gal-9N
T5 construct: the N-terminal CRD of galectin-9 (galectin-9N)
Procedure: (§1) FA was used to analyze interactions of probes and ligands with galectins in solution, as described before ([41][–][44]). A PheraStarFS plate reader, with software PHERAstar Mars version 2.10 R3 (BMG, Offenburg, Germany), was used, and FA of fluorescein-tagged saccharide probes was measured with excitation at 485 nm and emission at 520 nm.
(§2) The anisotropy (A) is given in units of mA, where the theoretical maximum is 400, and the value for free fluorescein typically 23. All conditions were measured in at least two duplicate wells.
(§3) In this study, the effect of inhibitors of the saccharide probe/galectin interaction was tested in two ways. In the first, a fixed low concentration of fluorescein-tagged probe (0.1 μM) and galectin were mixed with a range of concentrations of inhibitor. An optimal probe was chosen for each galectin to permit use of as low as possible concentration of galectin, while still achieving a sufficient rise in anisotropy for a reliable measuring range ([42][–][44]). […] With structurally defined inhibitors (pure synthetic galacto-oligosaccharides, small galactomannans, and reference ligands) the molecular mass, molar concentrations, and number of binding sites (in this case one binding site per ligand) were known and their dissociation constants (Kd) could therefore be directly calculated, using the data from the FA assay as described in Sörme et al. ([41]). […] Even if the molar concentration of the inhibitor is not known, the anisotropy value at a given condition permits calculation of the molar concentration of free galectin, as described below, and from this what fraction of the galectin is bound by a given mass per volume concentration of inhibitor. From this, the ratio of the molar concentration of the free inhibitor binding sites to their Kd value can be calculated, even if the FA assay cannot distinguish between the case when this is due to a few high affinity binding sites in the polysaccharide fraction or many of low affinity.

[2] = molecular target: galectin-1 (Homo sapiens, UniProt P09382); assay: Fluorescence anisotropy assay, inhibition of probe binding to galectin-1; conditions: for Kd: about 1 μM galectin, 0.1 or 0.02 μM probe, 4 mM β-mercaptoethanol, NI = no inhibition at highest concentration tested, read-out: Calculated Kd, Gal-1
Procedure: as §1, §2, §3

[3] = molecular target: T6, galectin-3 (Homo sapiens, UniProt P17931); assay: Fluorescence anisotropy assay, galectin-3; assay type: binding; conditions: about 1 μM galectin, 0.1 or 0.02 μM probe; NI = no inhibition at highest concentration tested; read-out: Calculated Kd, Gal-3
Procedure: as §1, §2, §3

[4] = molecular target: T7, Gal-9C (Homo sapiens, UniProt O00182); assay: Fluorescence anisotropy assay, galectin-9C; assay type: binding; conditions: about 1 μM galectin, 0.1 or 0.02 μM probe; read-out: Calculated Kd, Gal-9C
T7 construct: Gal-9C
Procedure: as §1, §2, §3

[5] = molecular target: Gal-3 R186S (Homo sapiens, UniProt P17931, R186S); assay: Fluorescence anisotropy assay, galectin-3 R186S mutant; assay type: binding; conditions: about 1 μM galectin, 0.1 or 0.02 μM probe; read-out: Calculated Kd, Gal-3 R186S
Procedure: as §1, §2
(§4) In this study, the effect of inhibitors of the saccharide probe/galectin interaction was tested in two ways. […] With structurally defined inhibitors (pure synthetic galacto-oligosaccharides, small galactomannans, and reference ligands) the molecular mass, molar concentrations, and number of binding sites (in this case one binding site per ligand) were known and their dissociation constants (Kd) could therefore be directly calculated, using the data from the FA assay as described in Sörme et al. ([41]). […] From this, the ratio of the molar concentration of the free inhibitor binding sites to their Kd value can be calculated, even if the FA assay cannot distinguish between the case when this is due to a few high affinity binding sites in the polysaccharide fraction or many of low affinity.

[6] = molecular target: T1, Gal-4C; assay: Fluorescence anisotropy assay, galectin-4C; assay type: binding; conditions: about 1 μM galectin, 0.1 or 0.02 μM probe; NI = no inhibition at highest concentration tested; read-out: Calculated Kd, Gal-4C
Procedure: as §1, §2, §3

[7] = molecular target: T2, Gal-4N; assay: Fluorescence anisotropy assay, galectin-4N; assay type: binding; conditions: about 1 μM galectin, 0.1 or 0.02 μM probe; NI = no inhibition at highest concentration tested; read-out: Calculated Kd, Gal-4N
Procedure: as §1, §2, §4

[8] = molecular target: T6, galectin-3; conditions: given as example of low affinity; no reference given; read-out: Kd for galectin-3 canonical carbohydrate-binding site; cited from earlier work
[9] = molecular target: T3, galectin-2; assay: Fluorescence anisotropy assay, galectin-2; assay type: binding; conditions: about 1 μM galectin, 0.1 or 0.02 μM probe; NI = no inhibition at highest concentration tested; read-out: Calculated Kd, Gal-2
Procedure: as §1, §2, §4

[10] = molecular target: T4, galectin-8N; assay: Fluorescence anisotropy assay, galectin-8N; assay type: binding; conditions: about 1 μM galectin, 0.1 or 0.02 μM probe; read-out: Calculated Kd, Gal-8N
Procedure: as §1, §2, §4

[11] = molecular target: T8, galectin-1 wild type (UniProt P09382 1-135); assay: fluorescence polarisation; fluorescence anisotropy competition in solution; galectin-1 WT 0.5 uM, tdga saccharide probe 0.1 uM, increasing concentrations of ASF in the presence of the peptide Anginex, with or without beta-mercaptoethanol; conditions: both partners purified
T8 construct: galectin-1, wild type; also called Gal-1; galectin-1 WT; source: called purified galectins in the discussion
T8 sequence (P09382 whole entry): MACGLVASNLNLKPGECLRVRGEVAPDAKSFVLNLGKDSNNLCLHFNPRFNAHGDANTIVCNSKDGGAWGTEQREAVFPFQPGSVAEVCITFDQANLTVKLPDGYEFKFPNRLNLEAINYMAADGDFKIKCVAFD

T7 sequence (O00182 227-355 limits assumed): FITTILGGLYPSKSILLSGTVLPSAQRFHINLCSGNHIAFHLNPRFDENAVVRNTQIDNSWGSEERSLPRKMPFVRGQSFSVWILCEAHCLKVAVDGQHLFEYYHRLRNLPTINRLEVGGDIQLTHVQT
T5 sequence (O00182 17-148 limits assumed): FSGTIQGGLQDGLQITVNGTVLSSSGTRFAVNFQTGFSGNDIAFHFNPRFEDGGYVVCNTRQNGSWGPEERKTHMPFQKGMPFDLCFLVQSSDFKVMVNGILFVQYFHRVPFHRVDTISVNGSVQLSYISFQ
Sequence of galectin-1 (P09382 whole entry, species assumed): as the sequence (P09382 whole entry) above
T6 sequence (P17931 whole entry): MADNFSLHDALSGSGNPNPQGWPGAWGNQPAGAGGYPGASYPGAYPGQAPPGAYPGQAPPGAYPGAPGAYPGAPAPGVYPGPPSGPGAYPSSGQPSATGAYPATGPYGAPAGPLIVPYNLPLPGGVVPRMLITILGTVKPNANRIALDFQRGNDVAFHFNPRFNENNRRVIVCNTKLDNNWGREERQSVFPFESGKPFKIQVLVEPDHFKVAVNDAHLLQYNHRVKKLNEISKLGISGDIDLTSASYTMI
Sequence of Gal-3 R186S (P17931 whole entry R186S): as the sequence (P17931 whole entry) above, with R186S counted along it

Molecule | Kd [1] | Kd [2] | Kd [3] | other results
OC1OC[C@H](O)[C@H](O)[C@H]1O (mixture of isomers) [L-Arabinose, L-arabinose, reference compound] | 94000 µM |  |  | 
OC[C@H]1O[C@@H](O[C@H]2[C@@H](O)[C@@H](CO)O[C@@H](OC[C@H]3OC(O)[C@H](O)[C@@H](O)[C@H]3O)[C@@H]2O)[C@H](O)[C@@H](O)[C@H]1O (stereo partly shown) [Galβ1–3Galβ1–6Gal] | 68 µM | 1200 µM | 110 µM | 
OC[C@H]1O[C@@H](O[C@H]2[C@@H](O)[C@@H](CO)OC(O)[C@@H]2O)[C@H](O)[C@@H](O)[C@H]1O (stereo partly shown) [Galβ1–3Gal] | 150 µM |  | 180 µM | 
COC1OC(CO)C(O)C(O)C1O (stereo not drawn) [Methyl β-Gal, reference compound] | 4000 µM |  |  | Kd [4]: 8600 µM
OC[C@H]1O[C@@H](OC[C@H]2OC(O)[C@H](O)[C@@H](O[C@@H]3O[C@H](CO)[C@H](O)[C@H](O)[C@H]3O)[C@H]2O)[C@H](O)[C@@H](O)[C@H]1O (stereo partly shown) [Branched Galβ1–6(Galβ1–3)Gal, Galβ1–6(Galβ1–3)Gal] | 100 µM | 1300 µM | 130 µM | 
CO[C@@H]1O[C@H](CO)[C@@H](O[C@@H]2O[C@H](CO)[C@H](O)[C@H](O)[C@H]2O)[C@H](O)[C@H]1O [Methyl β-Lac, reference compound] |  | 170 µM | 110 µM | Kd [5]: 290 µM; Kd [6]: 2900 µM; Kd [7]: 2600 µM; Kd [4]: 190 µM
OC[C@H]1O[C@@H](OC[C@H]2O[C@@H](OC[C@H]3OC(O)[C@H](O)[C@@H](O)[C@H]3O)[C@H](O)[C@@H](O)[C@H]2O)[C@H](O)[C@@H](O)[C@H]1O (stereo partly shown) [Galβ1–6Galβ1–6Gal] | > 2000 µM | > 2000 µM | > 2000 µM | 
Anginex [reference compound] |  |  |  | influence on galectin-1 interaction with Davanat® ([2]; galectin-1 0.5 μM, tdga probe 0.1 μM, Fig. 7E): no influence; potentiation of the inhibition of galectin-1 by ASF (factor) ([2]; with or without β-mercaptoethanol, Fig. 7F): about 500
O=C[C@H](O)[C@@H](O)[C@@H](O)[C@H](O)CO [Gal, galactose] |  |  |  | Kd [8]: ~5000 µM
OC[C@H]1O[C@@H](O[C@@H]2[C@H](O)[C@@H](O)C(O)O[C@@H]2CO)[C@H](O)[C@@H](O)[C@H]1O (stereo partly shown) [Galβ1–4Gal] | 1200 µM |  |  | 
CO[C@@H]1O[C@H](CO)[C@@H](O[C@@H]2O[C@H](CO)[C@H](O)[C@H](O)[C@H]2O)[C@H](O)[C@H]1NC(C)=O [Methyl β-LacNAc, reference compound] |  | 84 µM | 52 µM | Kd [5]: 1200 µM
OC[C@H]1O[C@H](OC[C@H]2O[C@@H](O[C@H]3[C@H](O)[C@H](O)[C@H](O[C@H]4[C@H](O)[C@H](O)[C@H](O[C@H]5[C@H](O)[C@H](O)C(O)O[C@@H]5CO)O[C@@H]4CO)O[C@@H]3CO[C@H]3O[C@H](CO)[C@H](O)[C@H](O)[C@H]3O)[C@@H](O)[C@@H](O)[C@@H]2O[C@@H]2O[C@H](CO)[C@@H](O)[C@H](O)[C@@H]2O)[C@H](O)[C@@H](O)[C@H]1O (stereo partly drawn) [6^3,6^4-α-Galactosyl-mannopentaose, 6^3,6^4-α-D-galactosyl-mannopentaose] | 980 µM | 4300 µM | 1500 µM | Kd [9]: 8300 µM; Kd [6]: > 10000 µM; Kd [10]: 2500 µM; Kd [4]: 2000 µM
OC[C@H]1O[C@@H](OC[C@H]2OC(O)[C@H](O)[C@@H](O)[C@H]2O)[C@H](O)[C@@H](O)[C@H]1O (stereo partly shown) [Galβ1–6Gal] | > 2000 µM | > 2000 µM |  | 
OC[C@H]1O[C@H](OC[C@H]2OC(O)[C@@H](O)[C@@H](O)[C@@H]2O[C@@H]2O[C@H](CO)[C@@H](O[C@@H]3O[C@H](CO)[C@@H](O)[C@H](O)[C@@H]3O)[C@H](O)[C@@H]2O)[C@H](O)[C@@H](O)[C@H]1O (stereo partly drawn) [6^1-α-Galactosyl-mannotriose, 6^1-α-D-galactosyl-mannotriose] | 2400 µM |  | 3600 µM | Kd [9]: > 10000 µM; Kd [6]: > 10000 µM; Kd [7]: > 10000 µM; Kd [10]: 7400 µM
OC[C@H]1O[C@@H](OC[C@H]2O[C@@H](OC[C@H]3OC(O)[C@H](O)[C@@H](O)[C@H]3O)[C@H](O)[C@@H](O[C@@H]3O[C@H](CO)[C@H](O)[C@H](O)[C@H]3O)[C@H]2O)[C@H](O)[C@@H](O)[C@H]1O (stereo partly shown) [Branched Galβ1–6(Galβ1–3)Galβ1–6Gal, Galβ1–6(Galβ1–3)Galβ1–6Gal] | 51 µM | 800 µM | 80 µM | 
asialofetuin (natural protein, UniProt P12763 19-359, looked up, asialofetuin (ASF), a glycoprotein; Desialylated fetuin; also called ASF) IPLDPVAGYKEPACDDPDTEQAALAAVDYINKHLPRGYKHTLNQIDSVKVWPRRPTGEVYDIEIDTLETTCHVLDPTPLANCSVRQQTQHAVEGDCDIHVLKQDGQFSVLFTKCDSSPDSAEDVRKLCPDCPLLAPLNDSRVVHAVEVALATFNAESNGSYLQLVEISRAQFVPLPVSVSVEFAVAATDCIAKEVVDPTKCNLLAEKQYGFCKGSVIQKALGGEDVRVTCTLFQTQPVIPQPQPDGAEAEAPSAVPDAAGPTPSAAGPPVASVVVGPSVVAVPLPLHRAHYDLRHTFSGVASVESSSGEAFHVGKTPIVGQPSIPGGPVRLCPGRIRYFKI |  |  |  | fold potentiation by Anginex of the inhibition of galectin-1/probe binding by ASF [11]: ~500 fold
